pEC50: −log10 of the molar value. Structures can show the parent of a compound that is named as a salt. Where two headings read alike, the source gives them in different places.
What was measured:
S1P1 = biological target: T1, S1P1 (Homo sapiens, UniProt P21453); assay: In vitro agonistic activity on S1P1, U2OS-EDG1 cells, LiveBLAzer FRET B/G; format: cell-based; conditions: for Emax: % Effect
T1 construct: host or cells: U2OS
Experimental: Assay Example 1: In Vitro Evaluation of the Agonistic Activity of the Compounds of the Present Disclosure on S1P1
Object of the assay: To detect the agonistic activity of compounds on S1P1
• 1. Cells U2OS-EDG1 (Batch No.: Invitrogen-K1520) were taken out of a liquid nitrogen tank and placed in a 37° C. water bath to thaw quickly; • 2. The cell suspension was aspirated into a 15 ml centrifuge tube, resuspended in 5 ml of preheated medium, and centrifuged at 1000 rpm for 5 min; • 3. The supernatant was discarded. The cells were resuspended in 10 ml of medium, transferred into a T75 culture flask, and cultivated in an incubator with 5% CO2 at 37° C. II. Agonist Assay • 1. The compounds were diluted to working concentrations, and serially diluted 3-fold by Echo 555 (manufacturer: Labcyte) to obtain 10 concentrations; 200 nL of each concentration of the compound was transferred to a cell plate and centrifuged at 1000 rpm for 15 seconds; • 2. Culture medium was aspirated from the culture flask; 4 mL of Dulbecco's phosphate buffer (DPBS, supplier: Coring, item No.: 21-031-CVR, batch No.: 03318006) was added, and the residual serum was washed away; 2 mL of trypsin was added; The mixture was incubated in an incubator at 37° C. for 2 min, and the cells were digested; 10 mL of seeding medium was added to resuspend the cells; 0.6 mL of cell suspension was taken out and counted; • 3. The density of cells was adjusted to 1.88E+05 cells/mL using seeding medium, with 40 μL per well (7500\well); 40 μL of FreeStyle™ Expression medium was added around the cell plate; The plate was let stand at room temperature for 15 min and incubated at 37° C. with 5% CO2 for 20 hours. III. Signal Detection • 1. LiveBLAzer™-FRET B/G Substrate (CCF4-AM) assay reagents were formulated according to the instructions; • 2. 8 μL of 6×Substrate Mixture was added to each well of the cell plate; The plate was centrifuged at 1000 rpm for 15 seconds, covered with a film, and incubated at 23° C. for 2 hours; The cell plate was subjected to Envision […] detection. IV. Data Analysis • 1. The raw data were converted into % Effect by using an equation, and the EC50 value can be obtained by curve fitting with four parameters [“log(agonist) vs. response—Variable slope” model in GraphPad Prism]; • 2. Calculation formula: Ratio=(460 nm−blank)/(535 nm−blank) % Effect=(SampleRatio−Ave LCRatio)/(Ave HCRatio−Ave LCRatio)×100%

[1] = Pharmacokinetic evaluation in SD rats (iv and oral); format: in vivo, Sprague Dawley rats; conditions: male, Sprague-Dawley, rat, plasma; for half-life: read-out: Half life T1/2 (PO) (converted); for clearance: read-out: Clearance rate CL; for Vd: read-out: Distribution in tissue Vdss; for bioavailability: read-out: Bioavailability F; for Cmax: read-out: Peak concentration Cmax
Experimental: Assay Example 2: Pharmacokinetic Evaluation of Compounds in Rats
Object of the assay: To evaluate the in vivo pharmacokinetics of the compounds in SD rats
Sprague Dawley rats (male, 200-300 g, 7-9 weeks old, Shanghai SLAC)
The pharmacokinetic characteristics of the compounds in rodents after intravenous injection and oral administration were assayed according to the standard protocol. In the assay, the candidate compounds were formulated into clear solutions and administered to rats by single intravenous injection and oral administration. The vehicle for intravenous injection and oral administration was DMSO and 10% hydroxypropyl β-cyclodextrin in water (DMSO:10% hydroxypropyl β-cyclodextrin in water=5:95). Whole blood samples were collected within 48 hours, and centrifuged at 3000 g for 15 minutes. The supernatant was separated to give plasma samples. 4 times the volume of acetonitrile solution containing internal standard was added to precipitate protein. The resulting mixture was centrifuged and the supernatant was taken out. An equal volume of water was added and the mixture was centrifuged. The supernatant was taken out, and injected as a sample to quantitatively analyze the plasma drug concentration by LC-MS/MS analysis method. The pharmacokinetic parameters, such as peak concentration, time to peak, clearance rate, half-life, area under drug-time curve, bioavailability, etc., were calculated.

[2] = intravenous, iv 1.0, po 2.0 mg/kg
[3] = po, 2 mg/kg, iv 1.0, po 2.0 mg/kg, PO, read-out: Area under drug-time curve AUC0-last PO

T1 sequence (P21453 whole entry): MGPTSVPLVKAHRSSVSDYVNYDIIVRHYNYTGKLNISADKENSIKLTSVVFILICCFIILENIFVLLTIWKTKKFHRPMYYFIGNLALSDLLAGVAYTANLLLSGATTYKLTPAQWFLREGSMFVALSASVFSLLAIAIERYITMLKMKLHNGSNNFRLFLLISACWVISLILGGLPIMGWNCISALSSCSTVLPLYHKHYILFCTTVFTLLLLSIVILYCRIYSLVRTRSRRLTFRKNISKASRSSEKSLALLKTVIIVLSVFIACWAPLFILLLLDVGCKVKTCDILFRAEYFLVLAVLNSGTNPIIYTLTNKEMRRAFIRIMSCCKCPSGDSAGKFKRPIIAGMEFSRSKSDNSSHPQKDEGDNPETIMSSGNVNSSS

Work on `CC(=NOCc1ccc(OC(C)C)c(C(F)(F)F)c1)c1ccc2c(c1)CCC2N1CC(C(=O)O)C1` (single isomer, unassigned) [Compound 32A] yielded a pEC50 (S1P1) of 8.42, an Emax (S1P1) of 101% and a half-life ([1]; intravenous, 1 mg/kg, iv 1.0 mg/kg only (head prints PO)) of 7.5 h. The AUC(0-t) ([1]; iv, 1 mg/kg, iv 1.0 mg/kg, read-out: Area under drug-time curve AUC0-last iv) was 6.84 µM·h, the clearance ([1]; iv, 1 mg/kg, iv 1.0 mg/kg) was 4.5 mL/min/kg and the Vd ([1]; iv, 1 mg/kg, iv 1.0 mg/kg) was 2.78 L/kg.
Work on `C/C(=N\OCc1ccc(C2CCCCC2)c(C(F)(F)F)c1)c1ccc2c(c1)CC(NCCC(=O)O)C2` (stereo not drawn) [Compound 1 trifluoroacetate] yielded a pEC50 (S1P1) of 7.38 and an Emax (S1P1) of 88.4%.
With `C/C(=N\OCc1ccc(C2CCCCC2)c(C(F)(F)F)c1)c1ccc2c(c1)CCC2NCC1(C(=O)O)CC1` (stereo not drawn) [Compound 3 trifluoroacetate] the pEC50 (S1P1) was 8.24, the Emax (S1P1) was 95% and the AUC(0-t) ([1]; iv 1.4, po 2.7 mg/kg, PO, read-out: Area under drug-time curve AUC0-last PO) was 7.05 µM·h. For the same molecule, the half-life ([1]; iv 1.4, po 2.7 mg/kg, PO) was 11.3 h, the bioavailability ([1]; iv 1.4, po 2.7 mg/kg) was 59.3% and the clearance ([1]; iv 1.4, po 2.7 mg/kg) was 6.87 mL/min/kg. It also gave a Vd ([1]; iv 1.4, po 2.7 mg/kg) of 5.47 L/kg and a Cmax ([1]; iv 1.4, po 2.7 mg/kg) of 393 nM.
Molecule `C/C(=N\OCc1ccc(OC(C)C)c(C(F)(F)F)c1)c1ccc2c(c1)CCC2NCC(=O)O` (stereo not drawn) [Compound 10 hydrochloride] has a pEC50 (S1P1) of 7.24 and an Emax (S1P1) of 84.2%.
For `C/C(=N\OCc1ccc(C2CCCCC2)c(C(F)(F)F)c1)c1ccc2c(c1)CCC2N(C)CCC(=O)O` (stereo not drawn) [Compound 11 trifluoroacetate], the pEC50 (S1P1) was 8.30, the Emax (S1P1) was 97.4% and the AUC(0-t) ([1]; iv 1.2, po 2.4 mg/kg, PO, read-out: Area under drug-time curve AUC0-last PO) was 11.3 µM·h. For the same molecule, the half-life ([1]; iv 1.2, po 2.4 mg/kg, PO) was 9.08 h, the bioavailability ([1]; iv 1.2, po 2.4 mg/kg) was 64% and the clearance ([1]; iv 1.2, po 2.4 mg/kg) was 4.24 mL/min/kg. The Vd ([1]; iv 1.2, po 2.4 mg/kg) was 3.32 L/kg and the Cmax ([1]; iv 1.2, po 2.4 mg/kg) was 605 nM.
With `C/C(=N\OCc1ccc(OCC(C)C)c(C(F)(F)F)c1)c1ccc2c(c1)CCC2NCC1(C(=O)O)CC1` (stereo not drawn) [Compound 13 hydrochloride] the pEC50 (S1P1) was 7.85 and the Emax (S1P1) was 102%.
In the case of `C/C(=N\OCc1ccc(OCC2CC2)c(C(F)(F)F)c1)c1ccc2c(c1)CCC2NCC1(C(=O)O)CC1` (stereo not drawn) [Compound 14 hydrochloride], the pEC50 (S1P1) was 7.56 and the Emax (S1P1) was 113%.
`C/C(=N\OCc1ccc(C2CCCCC2)c(C(F)(F)F)c1)c1ccc2c(c1)CCC2NCCC(=O)O` (stereo not drawn) [Compound 20] gave a pEC50 (S1P1) of 8.05 and an Emax (S1P1) of 51%.
With `C/C(=N\OCc1ccc(OCC2CC2)c(C(F)(F)F)c1)c1ccc2c(c1)CCC2N(C)CCC(=O)O` (stereo not drawn) [Compound 21] the pEC50 (S1P1) was 7.91, the Emax (S1P1) was 106% and the clearance [1, 2] was 5.43 mL/min/kg. For the same molecule, the Vd [1, 2] was 2.05 L/kg, the bioavailability ([1]; iv 1.0, po 2.0 mg/kg) was 53.2% and the Cmax ([1]; iv 1.0, po 2.0 mg/kg) was 486 nM. For the same molecule, the AUC(0-t) [1, 3] was 6.13 µM·h.
Work on `C/C(=N\OCc1ccc(OCC(C)C)c(C(F)(F)F)c1)c1ccc2c(c1)CCC2N(C)CCC(=O)O` (stereo not drawn) [Compound 22 formate] yielded a pEC50 (S1P1) of 7.72 and an Emax (S1P1) of 107%.
Work on `C/C(=N\OCc1ccc(OC(F)F)c(C(F)(F)F)c1)c1ccc2c(c1)CCC2N1CC(C(=O)O)C1` (stereo not drawn) [Compound 28] yielded a pEC50 (S1P1) of 7.64 and an Emax (S1P1) of 121%.
Work on `C/C(=N\OCc1ccc(OCC(C)C)c(C(F)(F)F)c1)c1ccc2c(c1)CCC2N1CC(C(=O)O)C1` (stereo not drawn) [Compound 29] yielded a pEC50 (S1P1) of 8.06, an Emax (S1P1) of 103% and a clearance [1, 2] of 3.68 mL/min/kg. It also gave a Vd [1, 2] of 2.24 L/kg, a bioavailability ([1]; iv 1.0, po 2.0 mg/kg) of 59.4% and a Cmax ([1]; iv 1.0, po 2.0 mg/kg) of 615 nM. For the same molecule, the AUC(0-t) [1, 3] was 9.52 µM·h.
In the case of `C/C(=N\OCc1ccc(C2CCCCC2)c(C(F)(F)F)c1)c1ccc2c(c1)CCC2N1CC(C(=O)O)C1` (stereo not drawn) [Compound 30], the pEC50 (S1P1) was 7.78, the Emax (S1P1) was 63.4% and the clearance [1, 2] was 3.93 mL/min/kg. For the same molecule, the Vd [1, 2] was 4.19 L/kg, the bioavailability ([1]; iv 1.0, po 2.0 mg/kg) was 62.1% and the Cmax ([1]; iv 1.0, po 2.0 mg/kg) was 478 nM. For the same molecule, the AUC(0-t) [1, 3] was 7.54 µM·h.
In the case of `C/C(=N\OCc1ccc(OC2CCCC2)c(C(F)(F)F)c1)c1ccc2c(c1)CCC2N1CC(C(=O)O)C1` (stereo not drawn) [Compound 31], the pEC50 (S1P1) was 7.99, the Emax (S1P1) was 105% and the clearance [1, 2] was 2.87 mL/min/kg. It also gave a Vd [1, 2] of 0.88 L/kg, a bioavailability ([1]; iv 1.0, po 2.0 mg/kg) of 80.9% and a Cmax ([1]; iv 1.0, po 2.0 mg/kg) of 1660 nM. It also gave an AUC(0-t) [1, 3] of 18.6 µM·h and a half-life ([1]; po, 2 mg/kg, iv 1.0, po 2.0 mg/kg, PO) of 4.6 h.
Work on `C/C(=N\OCc1ccc(OCC2CC2)c(C(F)(F)F)c1)c1ccc2c(c1)CCC2N1CC(C(=O)O)C1` (stereo not drawn) [Compound 33] yielded a pEC50 (S1P1) of 8.53 and an Emax (S1P1) of 110%.
With `C/C(=N\OCc1ccc(OC(C)C)c(C(F)(F)F)c1)c1ccc2c(c1)CCC2N(C)CCC(=O)O` (stereo not drawn) [Compound 35] the pEC50 (S1P1) was 8.16 and the Emax (S1P1) was 101%.
